From patent publication US20240067693A1, “POLYPEPTIDES AND USES THEREOF” (MEDIMMUNE LIMITED, priority 2020, published 2024)
Numbered stars: 1 amine (or outer) side, 2 acyl side, 3 side chain; on linkers, the order of the positions; unused ones are H or OH. Bridge positions count the residues as written; N and C are the ends. Square brackets hold non-standard residues; d marks the D form. Side chains are listed from the residue outwards. Peptide text beside a SMILES is read from it. * marks the point of attachment. C18 diacid = O=C(O)CCCCCCCCCCCCCCCCC(=O)*; γGlu = O=C(O)[C@H](CCC(=O)[*:2])N[*:1]; αMeF = C[C@](N)(Cc1ccccc1)C(=O)O

Experiments:
[1] = target: T1, human amylin receptor (calcitonin receptor co-expressed with receptor activity modifying protein, RAMP3) (hAMYR3) (Homo sapiens, UniProt O60896+P30988); assay: cAMP production in 1321N1 cells with stable recombinant expression of human amylin receptor (hAMYR3); assay type: cell-based
T1 construct: expressed in transfected cells
T1 sequence (P30988 25-474): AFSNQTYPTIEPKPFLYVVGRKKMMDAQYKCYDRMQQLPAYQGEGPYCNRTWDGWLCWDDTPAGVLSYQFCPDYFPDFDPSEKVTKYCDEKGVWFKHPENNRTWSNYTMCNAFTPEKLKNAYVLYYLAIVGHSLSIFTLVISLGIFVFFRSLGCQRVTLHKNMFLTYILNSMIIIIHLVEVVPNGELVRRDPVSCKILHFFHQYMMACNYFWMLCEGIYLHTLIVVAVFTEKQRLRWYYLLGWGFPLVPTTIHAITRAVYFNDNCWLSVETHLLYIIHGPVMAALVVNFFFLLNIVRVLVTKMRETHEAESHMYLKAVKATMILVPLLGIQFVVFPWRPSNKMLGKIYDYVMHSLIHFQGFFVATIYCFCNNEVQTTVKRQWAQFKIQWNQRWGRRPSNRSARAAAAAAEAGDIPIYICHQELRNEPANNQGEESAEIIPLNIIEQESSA
T1 sequence (O60896 24-148 partner): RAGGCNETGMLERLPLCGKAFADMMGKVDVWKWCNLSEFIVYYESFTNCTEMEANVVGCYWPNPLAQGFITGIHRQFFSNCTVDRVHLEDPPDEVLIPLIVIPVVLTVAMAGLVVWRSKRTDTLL
Procedure, shortened: (§1)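 EC50 values come from 4-parameter logistic fits of HTRF cAMP signal, normalised to maximal calcitonin or amylin effect. Peptides were tested in duplicate for 30 min at RT in IBMX-containing (0.5 mM) BSA/HEPES buffer pH 7.4 on stable 1321N1 (human CTR, AMYR3) or HEK (rat CTR, AMYR3) lines.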

[2] = Thioflavin T fibrillation assay; assay type: physicochemical; settings: ThT fibrillation assay; peptide 1 mg/mL in 25 mM sodium acetate buffer pH 4.0; 6 days at 37 °C with shaking; >144 h = no increase
Procedure, shortened: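 Peptides at 1 mg/mL in 25 mM sodium acetate pH 4.0 with ThT (from 0.25 mM stock), incubated 6 days at 37 °C with intermittent orbital shaking at 500–750 rpm. Fluorescence (ex 444/em 480 nm) read every 30 min; value is average time to a rise in baseline-corrected signal.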

[3] = target: T2, human calcitonin receptor (hCTR) (Homo sapiens, UniProt P30988); assay: cAMP production in 1321N1 cells with stable recombinant expression of human calcitonin receptor (hCTR); assay type: cell-based; settings: cAMP, 1321N1 cells, assay buffer with 0.1% BSA; read-out: EC50 (pM) hCTR
T2 construct: expressed in transfected cells
T2 sequence (P30988 25-474): T1 sequence (P30988 25-474)
Procedure, shortened: as §1

[4] = target: T3, rat calcitonin receptor (rat CTR) (Rattus norvegicus, UniProt P32214); assay: cAMP production in HEK cells with stable recombinant expression of rat calcitonin receptor (rat CTR); assay type: cell-based; settings: assay buffer with 0.1% BSA
T3 construct: expressed in transfected cells
T3 sequence (P32214 25-516): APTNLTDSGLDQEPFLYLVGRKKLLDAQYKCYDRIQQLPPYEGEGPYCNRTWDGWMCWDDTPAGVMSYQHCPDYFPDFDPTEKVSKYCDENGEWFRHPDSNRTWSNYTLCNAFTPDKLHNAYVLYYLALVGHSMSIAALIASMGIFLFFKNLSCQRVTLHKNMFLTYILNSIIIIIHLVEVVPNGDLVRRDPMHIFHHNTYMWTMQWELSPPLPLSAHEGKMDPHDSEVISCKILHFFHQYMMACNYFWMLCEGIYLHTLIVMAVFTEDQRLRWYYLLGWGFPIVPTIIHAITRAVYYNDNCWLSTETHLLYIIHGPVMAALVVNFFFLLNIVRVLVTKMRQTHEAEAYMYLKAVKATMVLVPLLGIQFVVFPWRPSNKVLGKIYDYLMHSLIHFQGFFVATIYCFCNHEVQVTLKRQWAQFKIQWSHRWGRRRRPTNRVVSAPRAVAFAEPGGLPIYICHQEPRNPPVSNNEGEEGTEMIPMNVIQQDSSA
Procedure, shortened: as §1

**Q.** What does the source list for `CC[C@H](C)[C@H](NC(=O)[C@@H]1CCCN1C(=O)CNC(=O)[C@](C)(Cc1ccccc1)NC(=O)[C@H](CC(N)=O)NC(=O)[C@H](CC(N)=O)NC(=O)[C@H](CO)NC(=O)[C@H](CO)NC(=O)[C@H](Cc1c[nH]cn1)NC(=O)[C@H](CCCNC(=N)N)NC(=O)[C@H](CC(C)C)NC(=O)[C@H](Cc1ccccc1)NC(=O)[C@H](CC(N)=O)NC(=O)[C@H](C)NC(=O)[C@H](CC(C)C)NC(=O)[C@H](CCCNC(=N)N)NC(=O)[C@H](CCC(N)=O)NC(=O)[C@@H](NC(=O)[C@H](C)NC(=O)[C@@H]1CSSC[C@H](NC(=O)[C@@H](N)CCCCNC(=O)CC[C@H](NC(=O)CC[C@H](NC(=O)CCCCCCCCCCCCCCCCC(=O)O)C(=O)O)C(=O)O)C(=O)N[C@@H](CC(N)=O)C(=O)N[C@@H]([C@@H](C)O)C(=O)N[C@@H](C)C(=O)N[C@@H]([C@@H](C)O)C(=O)N1)[C@@H](C)O)C(=O)N[C@@H](CC(C)C)C(=O)N1CCC[C@H]1C(=O)N1CCC[C@H]1C(=O)N[C@H](C(=O)N[C@@H](CCC(=O)O)C(=O)N[C@H](C(=O)NCC(=O)N[C@@H](CO)C(=O)N[C@@H](CC(N)=O)C(=O)N[C@H](C(=O)N[C@@H](Cc1ccc(O)cc1)C(N)=O)[C@@H](C)O)C(C)C)[C@@H](C)O` [Peptide 18, K(γE-γE-C18diacid)[CNTATC]ATQRLANFLRHSSNN(αMePhe)GPILPPTEVGSNTY-amide] (H-K([γGlu-γGlu-C18 diacid])CNTATCATQRLANFLRHSSNN[αMeF]GPILPPTEVGSNTY-NH2; disulfide 2-7; N-terminus assumed)?
**A.** Ratio (selectivity hAMYR vs hCTR, ratio of EC50 values at the two receptors) ([1]; EC50 hCTR / EC50 hAMYR3): 15; EC50 ([1]; cAMP, 1321N1 cells, assay buffer with 0.1% BSA, read-out: EC50 (pM) hAMYR3): 319 pM; Time taken to detect increase in fluorescence intensity [2]: >144 h; EC50 [3]: 4690 pM; EC50 [4]: 3090 pM
